In series [1] the test system is patients with Alzheimer's disease or patients with cerebrovascular dementia. The settings on record: reported in literature; cited from earlier work.
Series [2] can be described thus: Approximate solubility by manual dilution and visual observation. It is filed as physicochemical. The settings on record: 25° C.; for solubility: thermodynamic from solid, read-out: Solubility at 25° C. S. On the procedure:
The approximate solubility of the calcium salt in different solvents at 25° C. was tested by manual dilutions in combination with visual observation.

Series [3] in a line: Crystal polymorph screening by the heating method. The format is physicochemical. The settings on record: open vial, oven 60° C. or 80° C. As for the experimental part: 30 mg of the compound of Synthesis Example 12 was placed in an open vial, and incubated in an oven heated to 60° C. or 80° C. for 19 hours or for 91 hours. After completion of the incubation, XRPD analysis and polarizing microscope observation were performed. FIG. 26 and FIG. 27 show the results.

Entries after “also recorded” stand apart in the source; their conditions may differ. Like-named read-outs stand apart in the source and are kept apart here. Bounds are passed on as bounds.

As a reminder, the solubility is how much of the substance goes into solution per volume.

In the case of `NC(=O)[C@@H]1CCCN1C(=O)[C@H](Cc1cnc[nH]1)NC(=O)[C@@H]1CCC(=O)N1` [TRH], the “Effect on arousal, mood, semantic memory in patients” value in series [1] is on record as “improve the level of arousal, mood, semantic memory”.

As to `CCCCCC[C@@H](CCC)C(=O)[O][Ca][O]C(=O)[C@@H](CCC)CCCCCC` [Compound of Synthesis Example 12, calcium (R)-2-propyloctanoate (S)-2-propyloctanoate], the solubility in series [2] (2-propanol (printed 2-Promanol), organic solvent or mixture, 2-Promanol) was over 210 mg/mL; in series [2] (organic solvent or mixture, Acetone), under 1.7 mg/mL; in series [2] (organic solvent or mixture, CAN), under 1.5 mg/mL; in series [2] (organic solvent or mixture, EA) it was over 199 mg/mL; in series [2] (organic solvent or mixture, Ethanol), over 185 mg/mL; in series [2] (organic solvent or mixture, MEK), 94.4 to 189 mg/mL. The solubility in series [2] (organic solvent or mixture, MtBE) was over 215 mg/mL; in series [2] (organic solvent or mixture, THF), over 198 mg/mL; in series [2] (Water) it was under 1 mg/mL. The Solubility in words result in series [2] (different solvents) is “poorly soluble in water; also recorded: dissolved in ethanol, 2-propanol, MtBE, EA, and THF”. For the same compound, the “Changes in morphology or XRPD pattern on heating” value in series [3] (19 hours) was “no changes in morphology or XRPD pattern were observed”. In addition, the “Morphological changes on heating” value in series [3] (91 hours) is listed as “no morphological changes of the compound were observed”.
